Experimental data: ChEMBL document CHEMBL1151923, “Synthesis and evaluation of a netropsin-proximicin-hybrid library for DNA binding and cytotoxicity” (2009)

What was measured:
[1] = tested on: MCF7; assay: Cytotoxicity against human MCF7 cells after 48 hrs by sulforhodamine B assay; type: functional; settings: MCF7, 48 h
[2] = tested on: AGS; assay: Cytotoxicity against human AGS cells after 48 hrs by sulforhodamine B assay; type: functional
[3] = tested on: HepG2; assay: Cytotoxicity against human HepG2 cells after 48 hrs by sulforhodamine B assay; type: functional; settings: HepG2, 48 h
[4] = tested on: Nucleic Acid; assay: Binding affinity to DNA minor groove region CATGGCCATG assessed as melting temperature at 6 uM by thermal denaturation study; type: nucleic-acid assay
[5] = tested on: Nucleic Acid; assay: Binding affinity to DNA minor groove region CGCAAATTTGCG assessed as change in melting temperature at 6 uM by thermal denaturation study; type: nucleic-acid assay
[6] = tested on: Nucleic Acid; assay: Binding affinity to DNA minor groove region CATGGCCATG assessed as change in melting temperature at 6 uM by thermal denaturation study; type: nucleic-acid assay
[7] = tested on: Nucleic Acid; assay: Binding affinity to DNA minor groove region CGCAAATTTGCG assessed as melting temperature at 6 uM by thermal denaturation study; type: nucleic-acid assay

Row | Tm [4] [°C] | ΔTm [5] [°C] | ΔTm [6] [°C] | Tm [7] [°C] | Structure (SMILES) | GI50 [1] | GI50 [2] | GI50 [3]
1 |  |  |  |  | COC(=O)Nc1cc(C(=O)Nc2cc(C(=O)NCCc3cnc[nH]3)n(C)c2)n(C)c1 | > 20 µg/mL | > 20 µg/mL | > 20 µg/mL
2 |  |  |  |  | COC(=O)Nc1cc(C(=O)Nc2cc(C(=O)NCCC(C)C)n(C)c2)n(C)c1 | > 20 µg/mL | > 20 µg/mL | > 20 µg/mL
3 |  |  |  |  | COC(=O)Nc1cc(C(=O)Nc2cc(C(=O)NCCc3c[nH]c4ccccc34)n(C)c2)n(C)c1 | 24.9 µM | 17.7 µM | 21.6 µM
4 | 45 | 6 | 0 | 53 | Cn1cc(NC(=O)c2cc(NC(=O)Nc3ccccc3)cn2C)cc1C(=O)NCCc1c[nH]c2ccccc12 | 19.7 µM | 16.8 µM | 14.3 µM
5 |  |  |  |  | COC(=O)Nc1cc(C(=O)Nc2cc(C(=O)NC(Cc3c[nH]c4ccccc34)C(=O)O)n(C)c2)n(C)c1 (configuration not stated) | > 20 µg/mL | > 20 µg/mL | > 20 µg/mL
6 |  |  |  |  | COC(=O)Nc1cc(C(=O)Nc2cc(C(=O)O)n(C)c2)n(C)c1 | > 20 µg/mL | > 20 µg/mL | > 20 µg/mL
7 |  |  |  |  | COC(=O)Nc1cc(C(=O)Nc2cc(C(=O)NCCc3ccccc3)n(C)c2)n(C)c1 | > 20 µg/mL | > 20 µg/mL | > 20 µg/mL
8 |  |  |  |  | COC(=O)Nc1coc(C(=O)Nc2coc(C(=O)NCCc3ccc(O)cc3)c2)c1 [PROXIMICIN B] | 12.1 µM | 3.6 µM | 23 µM
9 |  |  |  |  | Cn1cc(NC(=O)c2cc(NC(=O)C(C)(C)C)cn2C)cc1C(=O)NCCc1c[nH]c2ccccc12 | 17.4 µM | 23.5 µM | > 40.9 µM
10 |  |  |  |  | Cn1cc(NC(=O)c2cc(NC(=O)OCC3c4ccccc4-c4ccccc43)cn2C)cc1C(=O)NCCc1c[nH]c2ccccc12 | 18.8 µM | > 31.9 µM | 4.6 µM
11 |  |  |  |  | COC(=O)Nc1cc(C(=O)Nc2cc(C(=O)NCCCC(=O)O)n(C)c2)n(C)c1 | > 20 µg/mL | > 20 µg/mL | > 20 µg/mL
12 | 47 | 25 | 0 | 71 | COC(=O)Nc1cc(C(=O)Nc2cc(C(=O)OCCc3ccccc3)n(C)c2)n(C)c1 | 13 µM | 2.8 µM | 2 µM
13 |  |  |  |  | C=CCOC(=O)Nc1cc(C(=O)Nc2cc(C(=O)NCCc3c[nH]c4ccccc34)n(C)c2)n(C)c1 | 15.4 µM | 1.7 µM | 14.3 µM
14 |  |  |  |  | COC(=O)Nc1cc(C(=O)Nc2cc(C(=O)NCCc3c[nH]c4ccc(O)cc34)n(C)c2)n(C)c1 | > 20 µg/mL | > 20 µg/mL | > 20 µg/mL
15 |  |  |  |  | CC(=O)Nc1cc(C(=O)Nc2cc(C(=O)NCCc3c[nH]c4ccccc34)n(C)c2)n(C)c1 | > 20 µg/mL | > 20 µg/mL | > 20 µg/mL
16 | 68 | 11 | 21 | 59 | Cn1cc(NC(=O)c2cc(NC(=O)OCC(Cl)(Cl)Cl)cn2C)cc1C(=O)NCCc1c[nH]c2ccccc12 | 10.3 µM | 10 µM | 4 µM
17 |  |  |  |  | Cn1cc(NC(=O)c2cc(NC(=O)NCc3ccccc3)cn2C)cc1C(=O)NCCc1c[nH]c2ccccc12 | > 20 µg/mL | > 20 µg/mL | > 20 µg/mL
18 |  |  |  |  | COC(=O)Nc1coc(C(=O)Nc2coc(C(N)=O)c2)c1 [PROXIMICIN A] | 24.6 µM | 2 µM | 2.8 µM
19 | 70 | 17 | 23 | 65 | Cn1cc(NC(=O)c2cc(NC(=O)OCc3ccccc3)cn2C)cc1C(=O)NCCc1c[nH]c2ccccc12 | 10.8 µM | 9.3 µM | 5.6 µM
20 |  |  |  |  | COC(=O)Nc1cc(C(=O)Nc2cc(C(=O)NCCc3ccc(O)c(O)c3)n(C)c2)n(C)c1 | > 20 µg/mL | > 20 µg/mL | > 20 µg/mL
21 |  |  |  |  | COC(=O)Nc1coc(C(=O)Nc2coc(C(=O)NCCc3c[nH]c4ccccc34)c2)c1 [PROXIMICIN C] | 20.6 µM | 0.6 µM | 1.8 µM
22 | 45 | 16 | 0 | 65 | Cn1cc(NC(=O)c2cc(NC(=O)c3cc(NC=O)cn3C)cn2C)cc1C(=O)NCCC(=N)N |  |  | 

Row | Structure (SMILES) | Tm [4] [°C] | ΔTm [5] [°C] | ΔTm [6] [°C] | Tm [7] [°C] | GI50 [1] | GI50 [2] | GI50 [3]
23 | Cn1cc(NC(=O)c2cc(NC(=O)CNC(=N)N)cn2C)cc1C(=O)NCCC(=N)N | 48 | 18 | 0 | 69 |  |  | 
